Columns and labels:
[1] = Weight change of tumor bearing B6C3F1 mice (toxic effects); type: in vivo; settings: i.p., 98 mg/kg, qd (1,7,14,21)
Method: (§1) The amount of protein in the alkaloidal and viscotoxin fractions were also determined to be within the required fingerprint ranges. Anticancer activities of T4GEN were studied in animals bearing subcutaneous transplants of C3H Mammary adenocarcinoma 16/C. This tumor is maintained as a lung framed tumor in C3H female mice. In this example, tumors (1×10^6 cells) were transplanted (S.C.) in 18-20 g B6C3F1 hybrid female mice. On the following day, the tumor beating animals were randomized and separated into different treatment groups (10 mice per group). There were 15 animals in the control group who received only physiological saline during the treatment periods. The treatments (i.p.) were staged 48 hours after the transplants and given for a duration of 14 days (daily single injections).Animals were weighed on days 5, 9 and 14 to assess toxic effects. Tumors were measured on day 21 post transplants and the results are represented as tumor weights using formula [formula] (l=length of tumor, w=width of tumor expressed in mm).

[2] = system: C3H Mammary adenocarcinoma 16/C; assay: Growth of subcutaneous transplants of C3H mammary adenocarcinoma 16/C in B6C3F1 female mice; type: in vivo; settings: i.p., 98 mg/kg, qd (1,7,14,21)
Method: as §1

AIDS patients = settings: human, in vivo; cited from earlier work
reverse transcriptase = settings: cited from earlier work

Compound | Δ Wts (day 14) [1] | Tumor Weight Inhibition [2] | Tumor Wts (day 21) ([2]; saline controls 0.27) | Tumor Free Animals (day 93) ([2]; saline controls 1/15) | toxic side effects (AIDS patients) | inhibition of reverse transcriptase (reverse transcriptase)
O=c1[nH]cc(F)c(=O)[nH]1 [5FIuorouracil] | +1.77 g | 100% | 0.00 | 0/6 | – | –
Cc1cn([C@H]2C[C@H](N=[N+]=[N-])[C@@H](CO)O2)c(=O)[nH]c1=O [AZT, azidothymidine] | – | – | – | – | serious toxic side effects including immunosuppression | –
Nc1ccn([C@H]2CC[C@@H](CO)O2)c(=O)n1 [ddC, 2',3'-dideoxycytidine] | – | – | – | – | serious toxic side effects including immunosuppression | inhibit reverse transcriptase
OC[C@@H]1CC[C@H](n2cnc3c(O)ncnc32)O1 [ddI, 2',3'-dideoxyinosine] | – | – | – | – | serious toxic side effects including immunosuppression | inhibit reverse transcriptase
